Assay results published in patent publication US20040002069A1, “Hepatic gene expression profiling of streptozotocin-induced diabetes” (The Regents of the University of California, priority 2002, published 2004).

Assays:
[1] = Blood glucose measurements after streptozotocin injections; type: in vivo, Swiss-Webster mice; conditions: three weekly intraperitoneal injections, 10 mg/100 g body weight; one week after the third injection
Procedure: (§1) Mice and treatment. Female, 8-month old Swiss-Webster mice were purchased from Jackson Laboratories. Diabetes was induced by three weekly intraperitoneal injections of streptozotocin (STZ; 10 mg/100 g body weight) in 50 mM sodium citrate, pH 4.5. […] Only mice with blood glucose levels higher than 3 mg/ml were used. Mice injected with equivalent volumes of sodium citrate at the same times served as controls. Mice were sacrificed one week after the last injection. Mice were fasted for 24 h before sacrifice.

hepatic gene expression = test: Hepatic gene expression profiling of streptozotocin-induced diabetes (Affymetrix Mu11KsubA/Mu11KsubB arrays); type: in vivo, Swiss-Webster mice; conditions: liver, STZ vs control mice
Procedure: as §1
Measurement of Specific mRNA Levels. Total liver RNA was isolated from frozen tissue fragments using TRI Reagent (Molecular Research Center, Inc., Cincinnati, Ohio) as described previously (Cao et al., Proc. Natl. Acad. Sci. U.S. A. 98:10630-10635 (2001)). Specific mRNA levels were measured using the Affymetrix Mu11KsubA and Mu11KsubB high-density oligonucleotide arrays using standard Affymetrix protocols as described (Cao et al., Proc. Natl. Acad. Sci. U.S. A. 98:10630-10635 (2001)). Briefly, cDNA was prepared from total RNA using Superscript Choice System with a primer containing oligo(dT) and the T7 RNA polymerase promoter sequence. Biotinylated cRNA was synthesized from purified cDNA using the Enzo BioArray High Yield RNA Transcript Labeling Kit (Enzo Biochem), and CRNA purified using RNeasy mini columns (Qiagen, Chatsworth, Calif.). An equal amount of cRNA from each animal was separately hybridized to Mu11KsubA and Mu11ksubB high-density oligonucleotide arrays. The arrays were hybridized for 16 h at 45° C. After hybridization, arrays were washed, stained with streptavidin-phycoerythrin, and scanned using a Hewlett-Packard GeneArray Scanner.
Data Analysis and Statistics. Image analysis and data quantification were performed using the Affymetrix Microarray Suite 5.0. Affymetrix Mu11KsubA and Mu11KsubB arrays contain targets for more than 11,000 mouse genes and expressed sequence tags (ESTs). Each gene or EST is represented on the array by 20 perfectly matched (PM) oligonucleotides and 20 mismatched (MM) control probes that contain a single central-base mismatch. The signal intensities of PM and MM were used to calculate a discrimination score, R, which is equal to (PM−MM)/(PM+MM). A detection algorithm utilized R to generate a detection p-value and assign a Present, Marginal or Absent call using the Wilcoxon signed rank test (Wilcoxon F., Biometrics 1:80-83 (1945); Affymetrix, Inc., New Statistical Algorithms for Monitoring Gene Expression on GeneChip Probe Arrays, Technical Notes 1, Part No. 701097 Rev. 1 (2001)). Only genes that were “Present” in at least 2 out of 3 arrays per experimental group were considered for further analysis. A signal algorithm calculated the relative level of expression of each transcript using the One-Step Tukey's Biweight Estimate (Affymetrix, Inc., New Statistical Algorithms for Monitoring Gene Expression on GeneChip Probe Arrays, Technical Notes 1, Part No. 701097 Rev. 1 (2001)). This procedure generates a robust weighted mean that is relatively insensitive to outliers, even when they are extreme. Genes with a signal intensity lower than the mean array signal intensity in 2 or more of the 3 arrays in either experimental group were eliminated from the analysis. All arrays were scaled to a target intensity of 2500. To identify differentially expressed genes, each of the 3 control samples was compared with each of the 3 STZ-treated samples, resulting in 9 pairwise comparisons. […] Difference values (PM-MM) between the control and STZ-treated arrays were used to generate a one-sided p-value for each set of probes. Default boundaries between significant and not significant p-values were used (Affymetrix, Inc., New Statistical Algorithms for Monitoring Gene Expression on GeneChip Probe Arrays, Technical Notes 1, Part No. 701097 Rev. 1 (2001)). […]

SMILES: CN(N=O)C(=O)N[C@H]1C(O)O[C@H](CO)[C@@H](O)[C@@H]1O (mixture of isomers) [STZ, streptozotocin]
- diabetic state by blood glucose measurements [1]: diabetic
- FC RIKEN cDNA 1110002E23 gene (hepatic gene expression; GenBank AA000467): 2.0 fold
- FC Proteasome (prosome, macropain) subunit, alpha type 4 (Psma4) mRNA (hepatic gene expression; GenBank AA008321): 2.0 fold
- FC X-box binding protein 1 (Xbp1) mRNA (hepatic gene expression; GenBank AA016424): 2.1 fold
- FC Cysteine-rich protein 2 (Csrp2) mRNA (hepatic gene expression; GenBank AA028770): 2.0 fold
- FC Similar to eukaryotic translation initiation factor 4 gamma, 1 (0610008L05Rik) (hepatic gene expression; GenBank AA038437): 2.6 fold
- FC Bifunctional aminoacyl-tRNA synthetase mRNA (hepatic gene expression; GenBank AA048927): 3.6 fold
- FC RIKIEN cDNA 1810034D23 gene (hepatic gene expression; GenBank AA066610): 1.9 fold
- FC CathepsinL (Ctsl) mRNA (hepatic gene expression; GenBank AA096813): 2.5 fold
- FC Poly A binding protein, cytoplasmic 1 (Pabpc1) mRNA (hepatic gene expression; GenBank AA106783): 2.0 fold
- FC Phosphoenolpyruvate carboxykinase 1, cytosolic (Pck1) mRNA (hepatic gene expression; GenBank AA110781): 3.6 fold
- FC mp72b03.rl Soares thymus cDNA clone IMAGE:574733, similar to cyclophilin (hepatic gene expression; GenBank AA124572): 1.9 fold
- FC Stearoyl-Coenzyme A desaturase 1 (Sed1) mRNA (hepatic gene expression; GenBank AA137436): −14.0 fold
- FC Cytochrome P450, 2c40 (Cyp2c40) mRNA (hepatic gene expression; GenBank AA137659): −2.5 fold
- FC Heat shock protein, 74 kDa, A (Hspa9A) mRNA (hepatic gene expression; GenBank AA138378): 3.5 fold
- FC Protease (prosome, macropain) 28 subunit, alpha (Psme1) mRNA (hepatic gene expression; GenBank AA165782): 1.9 fold
- FC Carbon catabolite repression 4 homolog (S. cerevisiae) (Ccr4) mRNA (hepatic gene expression; GenBank AA172909): 1.8 fold
- FC Erythroid differentiation regulator (Edr) mRNA (hepatic gene expression; GenBank AA174883): 1.8 fold
- FC Nuclear receptor coactivator 4 (Ncoa4) mRNA (hepatic gene expression; GenBank AA217659): 1.8 fold
- FC Argininosuccinate lyase (As1) mRNA (hepatic gene expression; GenBank AA237297): 2.0 fold
- FC Expressed sequence A1266885 (hepatic gene expression; GenBank AA250708): −2.5 fold
- FC RIKEN cDNA 2310009NO5 gene (2310009N05Rik) (hepatic gene expression; GenBank AA260798): 1.9 fold
- FC Isopentenyl-diphosphate delta-isomerase mRNA (hepatic gene expression; GenBank AA267683): −2.0 fold
- FC Activating transcription factor 5 (Atf5) mRNA (hepatic gene expression; GenBank AA270796): 2.1 fold
- FC Cellular repressor of E1A-stimulated genes (Creg) mRNA (hepatic gene expression; GenBank AA271265): 2.0 fold
- FC Splicing factor 3b, subunit 1, 155 kDa (Sf3b1) mRNA (hepatic gene expression; GenBank AA277153): 1.8 fold
- FC NADH dehydrogenase (ubiquinone) 1 beta subcomplex 6 mRNA (hepatic gene expression; GenBank AA277720): 2.5 fold
- FC vb90b12.rl Soares mouse 3NbMS cDNA clone IMAGE:764255 (hepatic gene expression; GenBank AA285530): 1.9 fold
- FC Ribonuclease, Rnase A family 4 (Rnase4) mRNA (hepatic gene expression; GenBank AA289858): −4.6 fold
- FC Splicing factor, arginine/serine-rich 5 (SRp40, HRS) (Sfrs5) mRNA (hepatic gene expression; GenBank AA388848): 1.9 fold
- FC Nuclear receptor coactivator 3 (Ncoa3) mRNA (hepatic gene expression; GenBank AA390043): 2.1 fold
- FC Sirtuin 2 (Sirt2) mRNA (hepatic gene expression; GenBank AA472476): −2.0 fold
- FC Retinal taurine transporter; solute carrier family 6, member 6 (Slc6a6) mRNA (hepatic gene expression; GenBank AA472795): 1.9 fold
- FC RAB9, member RAS oncogene family (Rab9) mRNA (hepatic gene expression; GenBank AA518955): 1.9 fold
- FC RIKEN cDNA 1810020N21 gene (hepatic gene expression; GenBank AA538556): 2.0 fold
- FC Expressed sequence AA960392 (hepatic gene expression; GenBank AA592283): 1.8 fold
- FC Ring finger protein 4 (Rnf4) mRNA (hepatic gene expression; GenBank AA600461): 2.1 fold
- FC Interferon alpha responsive gene, 15 kDa (Ifrg15-pending) mRNA (hepatic gene expression; GenBank AA608036): 1.9 fold
- FC RIKEN cDNA 2700059D21 gene (hepatic gene expression; GenBank AA655730): 1.8 fold
- FC vq87g01.r1 Knowles Solter mouse blastocyst B3 cDNA clone IMAGE: 1109328 (hepatic gene expression; GenBank AA666984): 2.0 fold
- FC C77421 Mouse 3.5-dpc blastocyst cDNA clone J0030G04, similar to Mouse B10.VL30LTR gene (hepatic gene expression; GenBank C77421): 2.5 fold
- FC Expressed sequence C79645 (hepatic gene expression; GenBank C79645): 1.8 fold
- FC mc25d02.rl Soares mouse cDNA clone IMAGE:349539 (hepatic gene expression; GenBank W3021 1): 2.1 fold
- FC ATP synthase, H+ transporting, mitochondrial F0 complex, subunit b, isoform 1 (Atp5f1) mRNA (hepatic gene expression; GenBank W08392): 1.9 fold
